Measured values as given in US20260365682A1, “MODULATORS OF TNF-ALPHA ACTIVITY” (Forward Therapeutics, Inc., priority 2022, published 2026).

These compounds were tested against T1, TNF-α (Homo sapiens, UniProt P01375) (assay: TNF-α Induced HEK Blue Cellular Assay (secreted alkaline phosphatase expression, QUANTI-Blue)). Conditions: HEK Blue TNFα reporter cells; TNF-α 100 μg/ml; 24 hrs at 37° C.; inhibition of secreted alkaline phosphatase; read-out: IC50 value.
T1 construct: purchased R&D 210-TA-020/CF
Type: cell-based
Outline: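 HEK Blue TNFα reporter cells (10,000/well) in DMEM with 10% FBS received compound ([…] to 0.5 nM final) and TNF-α at […] final for 24 h at 37° C. Secreted alkaline phosphatase read with QUANTI-Blue at 620 nm. IC50 came from a 4-parameter logistic fit after normalising to unstimulated and stimulated DMSO controls.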

T1 sequence (P01375 77-233 limits assumed): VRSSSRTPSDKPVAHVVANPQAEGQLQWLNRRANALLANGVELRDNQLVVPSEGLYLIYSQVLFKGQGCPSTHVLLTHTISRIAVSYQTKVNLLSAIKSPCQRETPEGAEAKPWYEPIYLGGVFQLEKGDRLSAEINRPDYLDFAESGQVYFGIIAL

Row | IC50 | SMILES
1 | < 100 nM | [2H]C([2H])([2H])N1C(=O)c2cccc(OC(F)F)c2[C@H]2C[C@@H]1c1nc3ccc(C#CC[Si](C)(C)C)cc3n12 [Example 90, (7R,14R)-1-(difluoromethoxy)-6-(methyl-d3)-11-(3-(trimethylsilyl)prop-1-yn-1-yl)-6,7-dihydro-7,14-methanobenzo[f]benzo[4,5]imidazo[1,2-a][1,4]diazocin-5(14H)-one]
2 | < 100 nM | [2H]C([2H])([2H])N1C(=O)c2cccc(OC(F)F)c2[C@H]2C[C@@H]1c1nc3ccc(C#CCCCC)cc3n12 [Example 91, (7R,14R)-1-(difluoromethoxy)-11-(hex-1-yn-1-yl)-6-(methyl-d3)-6,7-dihydro-7,14-methanobenzo[f]benzo[4,5]imidazo[1,2-a][1,4]diazocin-5(14H)-one]
3 | < 100 nM | [2H]C([2H])([2H])N1C(=O)c2cccc(OC(F)F)c2[C@H]2C[C@@H]1c1nc3ccc(C#CCCCCO)cc3n12 [Example 92, (7R,14R)-1-(difluoromethoxy)-11-(6-hydroxyhex-1-yn-1-yl)-6-(methyl-d3)-6,7-dihydro-7,14-methanobenzo[f]benzo[4,5]imidazo[1,2-a][1,4]diazocin-5(14H)-one]
4 | < 100 nM | [2H]C([2H])([2H])N1C(=O)c2cccc(OC(F)F)c2[C@H]2C[C@@H]1c1nc3ccc(C#CCCC(C)(C)O)cc3n12 [Example 93, (7R,14R)-1-(difluoromethoxy)-11-(5-hydroxy-5-methylhex-1-yn-1-yl)-6-(methyl-d3)-6,7-dihydro-7,14-methanobenzo[f]benzo[4,5]imidazo[1,2-a][1,4]diazocin-5(14H)-one]
5 | < 100 nM | [2H]C([2H])([2H])N1C(=O)c2cccc(OC(F)F)c2[C@H]2C[C@@H]1c1nc3ccc(C#CCCC(C)C)cc3n12 [Example 94, (7R,14R)-1-(difluoromethoxy)-6-(methyl-d3)-11-(5-methylhex-1-yn-1-yl)-6,7-dihydro-7,14-methanobenzo[f]benzo[4,5]imidazo[1,2-a][1,4]diazocin-5(14H)-one]
6 | < 100 nM | [2H]C([2H])([2H])N1C(=O)c2cccc(OC(F)F)c2[C@H]2C[C@@H]1c1nc3ccc(C#CC(=O)NC(C)C)cc3n12 [Example 95, 3-((7R,14R)-1-(difluoromethoxy)-6-(methyl-d3)-5-oxo-5,6,7,14-tetrahydro-7,14-methanobenzo[f]benzo[4,5]imidazo[1,2-a][1,4]diazocin-11-yl)-N-isopropylpropiolamide]
7 | < 100 nM | [2H]C([2H])([2H])N1C(=O)c2cccc(OC(F)F)c2[C@H]2C[C@@H]1c1nc3ccc(C#CC4(C)COC4)cc3n12 [Example 96, (7R,14R)-1-(difluoromethoxy)-6-(methyl-d3)-11-((3-methyloxetan-3-yl)ethynyl)-6,7-dihydro-7,14-methanobenzo[f]benzo[4,5]imidazo[1,2-a][1,4]diazocin-5(14H)-one]
8 | < 100 nM | [2H]C([2H])([2H])N1C(=O)c2cccc(OC(F)F)c2[C@H]2C[C@@H]1c1nc3ccc(C#CC4(O)CCOCC4)cc3n12 [Example 97, (7R,14R)-1-(difluoromethoxy)-11-((4-hydroxytetrahydro-2H-pyran-4-yl)ethynyl)-6-(methyl-d3)-6,7-dihydro-7,14-methanobenzo[f]benzo[4,5]imidazo[1,2-a][1,4]diazocin-5(14H)-one]
9 | < 100 nM | [2H]C([2H])([2H])N1C(=O)c2cccc(OC(F)F)c2[C@H]2C[C@@H]1c1nc3ccc(C#CCCCC(=O)O)cc3n12 [Example 98, 6-((7R,14R)-1-(difluoromethoxy)-6-(methyl-d3)-5-oxo-5,6,7,14-tetrahydro-7,14-methanobenzo[f]benzo[4,5]imidazo[1,2-a][1,4]diazocin-11-yl)hex-5-ynoic Acid]
10 | < 100 nM | [2H]C([2H])([2H])N1C(=O)c2cccc(OC(F)F)c2[C@H]2C[C@@H]1c1nc3ccc(CCCCO)cc3n12 [Example 99, (7R,14R)-1-(difluoromethoxy)-11-(4-hydroxybutyl)-6-(methyl-d3)-6,7-dihydro-7,14-methanobenzo[f]benzo[4,5]imidazo[1,2-a][1,4]diazocin-5(14H)-one]
11 | < 100 nM | [2H]C([2H])([2H])N1C(=O)c2cccc(OC(F)F)c2[C@H]2C[C@@H]1c1nc3ccc(C#Cc4cnc(P(C)(C)=O)nc4)cc3n12 [Example 100, (7R,14R)-1-(difluoromethoxy)-11-((2-(dimethylphosphoryl)pyrimidin-5-yl)ethynyl)-6-(methyl-d3)-6,7-dihydro-7,14-methanobenzo[f]benzo[4,5]imidazo[1,2-a][1,4]diazocin-5(14H)-one]
12 | < 100 nM | [2H]C([2H])([2H])N1C(=O)c2cccc(OC(F)F)c2[C@H]2C[C@@H]1c1nc3ccc(C#CCCN4CCOCC4)cc3n12 [Example 101, (7R,14R)-1-(difluoromethoxy)-6-(methyl-d3)-11-(4-morpholinobut-1-yn-1-yl)-6,7-dihydro-7,14-methanobenzo[f]benzo[4,5]imidazo[1,2-a][1,4]diazocin-5(14H)-one]
13 | < 100 nM | [2H]C([2H])([2H])N1C(=O)c2cccc(OC(F)F)c2[C@H]2C[C@@H]1c1nc3ccc(C#CC4CCOC4)cc3n12 (stereo partly drawn) [Example 102, (7R,14R)-1-(difluoromethoxy)-6-(methyl-d3)-11-((tetrahydrofuran-3-yl)ethynyl)-6,7-dihydro-7,14-methanobenzo[f]benzo[4,5]imidazo[1,2-a][1,4]diazocin-5(14H)-one]
14 | < 100 nM | [2H]C([2H])([2H])N1C(=O)c2cccc(OC(F)F)c2[C@H]2C[C@@H]1c1nc3ccc(C#CCCOC(F)F)cc3n12 [Example 103, (7R,14R)-1-(difluoromethoxy)-11-(4-(difluoromethoxy)but-1-yn-1-yl)-6-(methyl-d3)-6,7-dihydro-7,14-methanobenzo[f]benzo[4,5]imidazo[1,2-a][1,4]diazocin-5(14H)-one]
15 | 10000 to 30000 nM | [2H]C([2H])([2H])N1C(=O)c2cccc(OC(F)F)c2[C@H]2C[C@@H]1c1nc3ccc(C#CCCC(=O)O)cc3n12 [Example 104, 5-((7R,14R)-1-(difluoromethoxy)-6-(methyl-d3)-5-oxo-5,6,7,14-tetrahydro-7,14-methanobenzo[f]benzo[4,5]imidazo[1,2-a][1,4]diazocin-11-yl)pent-4-ynoic Acid]
16 | < 100 nM | [2H]C([2H])([2H])N1C(=O)c2cccc(OC(F)F)c2[C@H]2C[C@@H]1c1nc3ccc(C#CCC4CC4)cc3n12 [Example 105, (7R,14R)-11-(3-cyclopropylprop-1-yn-1-yl)-1-(difluoromethoxy)-6-(methyl-d3)-6,7-dihydro-7,14-methanobenzo[f]benzo[4,5]imidazo[1,2-a][1,4]diazocin-5(14H)-one]
17 | < 100 nM | [2H]C([2H])([2H])N1C(=O)c2cccc(OC(F)F)c2[C@H]2C[C@@H]1c1nc3ccc(C#Cc4ccc(P(C)(C)=O)cc4)cc3n12 [Example 106, (7R,14R)-1-(difluoromethoxy)-11-((4-(dimethylphosphoryl)phenyl)ethynyl)-6-(methyl-d3)-6,7-dihydro-7,14-methanobenzo[f]benzo[4,5]imidazo[1,2-a][1,4]diazocin-5(14H)-one]

Same assay, conditions: IC50 value, HEK Blue TNFα reporter cells; TNF-α 100 μg/ml; 24 hrs at 37° C.; inhibition of secreted alkaline phosphatase

Row | IC50 | SMILES
18 | 100 to 1000 nM | [2H]C([2H])([2H])N1C(=O)c2cccc(OC(F)F)c2[C@H]2C[C@@H]1c1nc3ccc(C#CC(=O)NCC(F)(F)F)cc3n12 [Example 89, 3-((7R,14R)-1-(difluoromethoxy)-6-(methyl-d3)-5-oxo-5,6,7,14-tetrahydro-7,14-methanobenzo[f]benzo[4,5]imidazo[1,2-a][1,4]diazocin-11-yl)-N-(2,2,2-trifluoroethyl)propiolamide]
